The source of these data is patent US20170275302A1, “INHIBITORS OF THE RENAL OUTER MEDULLARY POTASSIUM CHANNEL” (Merck Sharp & Dohme Corp., priority 2014, published 2017).

This experiment deals with T1, hROMK (hKir1.1) (Homo sapiens, UniProt P48048).
T1 construct: expressed in transfected cells
T1 sequence (P48048 1-391): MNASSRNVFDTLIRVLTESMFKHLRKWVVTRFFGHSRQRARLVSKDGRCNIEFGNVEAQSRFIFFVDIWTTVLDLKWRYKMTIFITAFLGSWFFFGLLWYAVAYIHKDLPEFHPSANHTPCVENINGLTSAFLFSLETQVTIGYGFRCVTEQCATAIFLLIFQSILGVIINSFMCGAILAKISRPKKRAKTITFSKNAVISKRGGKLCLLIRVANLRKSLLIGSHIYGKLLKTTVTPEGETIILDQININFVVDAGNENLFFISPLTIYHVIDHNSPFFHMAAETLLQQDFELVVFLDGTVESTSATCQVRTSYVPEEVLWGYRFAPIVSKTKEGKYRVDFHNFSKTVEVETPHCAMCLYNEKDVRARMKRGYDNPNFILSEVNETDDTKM
Kind of experiment: Thallium Flux Assay (ROMK channel functional thallium flux assay, FLIPR-Tetra). Format: cell-based. The conditions noted are these: HEK293 cells stably expressing hROMK (hKir1.1); FluxOR thallium flux, 30 min compound incubation; concentration inhibiting 50% of ROMK thallium flux signal. The procedure: The following Thallium Flux Assay was performed on each of the final product compounds in the Examples.
HEK293 cells stably expressing hROMK (hKir1.1) were grown at 37° C. in a 10% CO2 humidified incubator in complete growth media: Dulbecco's Modified Eagle Medium supplemented with non-essential amino acids, Penicillin/Streptomycin/Glutamine, G418 and FBS. At >80% confluency, the media was aspirated from the flask and rinsed with 10 mL calcium/magnesium-free phosphate buffered saline (PBS). 5 mL of 1× trypsin (prepared in Ca/Mg Free PBS) was added to T-225 flask and the flask was returned to 37° C./CO2 incubator for 2-3 minutes. To dislodge the cells, the side of the flask was gently banged with one's hand. The cells were completely titrated and then the cells were transferred to 25 mL complete media, centrifuged at 1,500 rpm for 6 min followed by resuspension in complete growth media, and the cell concentration was determined. For typical re-seeding, 4E6 cells/T-225 flask will attain >80% confluency in 4 days. Under ideal growth conditions and appropriate tissue culture practices, this cell line is stable for 40-45 passages.
Compound Buffer (per microplate): 20 mL Probenecid/Assay Buffer; 0.3 mM ouabain (10 mM ouabain in water can be stored in amber bottle/aluminum foil at room temperature); Test compound
Stimulant Buffer (prepared at 5× final concentration in 1× FluxOR™Chloride-Free Buffer): 7.5 mM thallium sulfate and 0.75 mM potassium sulfate (to give a final assay concentration of 3 mM Thallium/0.3 mM potassium). Store at 4° C. when not in use. If kept sterile, this solution is good for months.
The ROMK channel functional thallium flux assay was performed in 384 wells, using the FLIPR-Tetra instrument. HEK-hKir1.1 cells were seeded in Poly-D-Lysine microplates and kept in a 37° C.-10% CO2 incubator overnight. On the day of the experiment, the growth media was replaced with the FluxOR™ reagent loading buffer and incubated, protected from light, at ambient temperature (23-25° C.) for 90 min. The loading buffer was replaced with assay buffer±test compound followed by 30 min incubation at ambient temperature, where the thallium/potassium stimulant was added to the microplate.
• 1. Seed HEK-hKir1.1 cells (50 μl at 20,000 cells/well) in 384-well PDL coated Microplates • 2. Allow cells to adhere overnight in humidified 37° C./10% CO2 incubator • 3. Completely remove cell growth media from microplate and replace with 25 μl loading buffer • 4. Incubate Microplate at room temperature, protected form light, for 90 min • 5. Remove loading buffer and replace with 25 μl 1× Assay Buffer±test compound. • 6. Incubate microplate at room temperature, protected from light, for 30 min • 7. At FLIPR-Tetra 384: Add stimulant (thallium/potassium) solution to microplate and monitor fluorescence. Excitation=400 nm, Emission=460 & 580 nm. Collect data for ˜10 min.
The fluorescence intensity of wells containing 3 μM of a standard control ROMK inhibitor of the present invention was used to define the ROMK-sensitive component of thallium flux. Fluorescence in the presence of test compounds was normalized to control values to provide % fluorescence change. IC50 values represent the concentration of compound that inhibited 50% of the ROMK thallium flux signal.
Regarding `Cc1c([C@@H](O)CN2CCC3(CCCN(c4nccn5cnnc45)C3)C2)ccc2c1COC2=O` (stereo partly drawn) [Example 18], it took 339 nM to reach half-maximal inhibition (IC50).
The result for `Cc1c([C@@H](O)CN2CCC3(CC2)CCN(c2ccc4nsnc4c2)C3=O)ccc2c1COC2=O` [Example 31] reads 267 nM; that for `Cc1c([C@@H](O)CN2CCC3(CC2)CCN(c2cnc4nncn4c2)C3)ccc2c1COC2=O` [Example 24, (R)-5-(2-(2-([1,2,4]triazolo[4,3-a]pyrimidin-6-yl)-2,8-diazaspiro[4.5]decan-8-yl)-1-hydroxyethyl)-4-methylisobenzofuran-1(3H)-one], 850 nM.
Next, `Cc1c([C@@H](O)CN2CCC3(CCCN(c4ccc5nncn5n4)C3)CC2)ccc2c1COC2=O` [Example 76]: 97.6 nM; `Cc1c([C@@H](O)CN2CCC3(CC2)CCN(c2ccc4ncnn4c2)C3=O)ccc2c1COC2=O` [Example 35]: 537 nM; `N#Cc1ccc(C(O)CN2CCC3(CC2)CCN(c2ccc4nncn4n2)C3)nc1` (stereo not drawn) [Example 42]: 117 nM.
As to `Cc1c([C@@H](O)CN2CCC3(CC2)CCN(c2ccc4nnc(C)n4n2)C3)ccc2c1COC2=O` [Example 19], half-maximal inhibition (IC50) was put at 74.7 nM.
Next, `Cc1c([C@@H](O)CN2CCC3(CC2)CCN(c2cc4cnccc4s2)C3=O)ccc2c1COC2=O` [Example 37]: 117 nM.
`COc1cc([C@@H](O)CN2CCC3(CC2)CCN(c2ccc4nnnn4n2)C3)ncc1C#N` [Example 71, (S)-6-(1-hydroxy-2-(2-(tetrazolo[1,5-b]pyridazin-6-yl)-2,8-diazaspiro[4.5]decan-8-yl)ethyl)-4-methoxynicotinonitrile]: inhibition was half-maximal at 208 nM (IC50).
`Cc1cc(C#N)cnc1C(O)CN1CCC2(CC1)CCN(c1ccc3nncn3n1)C2` (stereo not drawn) [Example 49]: it took 208 nM to reach half-maximal inhibition (IC50).
As for `OC(CN1CCC2(CC1)CCN(c1ccc3nncn3n1)C2)c1ccc(-n2cnnn2)nc1` (racemic) [Example 52], it took 84 nM to reach half-maximal inhibition (IC50).
The compound `Cc1c([C@@H](O)CN2CCC3(CC2)CCN(c2ccc4nonc4c2)C3)ccc2c1COC2=O` [Example 90] came in with an IC50 of 98.3 nM.
`Cc1c([C@@H](O)CN2CCC3(CC2)CCN(c2nccn4nccc24)C3)ccc2c1COC2=O` [Example 1, (R)-5-(1-hydroxy-2-(2-(pyrazolo[1,5-α]pyrazin-4-yl)-2,8-diazaspiro[4.5]decan-8-yl)ethyl)-4-methylisobenzofuran-1(3H)-one] came in with an IC50 of 745 nM.
As to `COc1cc([C@H](CN2CCC3(CC2)CCN(c2ccc4nncn4n2)C3)OC(=O)C2CC2)ncc1C#N` [Example 22], the IC50 turned out to be 212 nM.
The compound `Cc1nc(-n2cnnn2)ccc1[C@@H](O)CN1CCC2(CC1)CCN(c1ccc3c(c1C)COC3=O)C2` [Example 78] registered a half-inhibitory concentration (IC50) of 622 nM.
In turn, `COc1cc(C(O)CN2CCC3(CC2)CC(=O)N(c2ccc4nncn4n2)C3)ccc1C#N` (stereo not drawn) [Example 58] registered an IC50 of 413 nM.
For `Cc1c([C@@H](O)CN2CCC3(CC2)CC(=O)N(c2ccc4nonc4c2)C3)ccc2c1COC2=O` [Example 89, (R)-2-(benzo[c][1,2,5]oxadiazol-5-yl)-8-(2-hydroxy-2-(4-methyl-1-oxo-1,3-dihydroisobenzofuran-5-yl)ethyl)-2,8-diazaspiro[4.5]decan-3-one], the IC50 was 42.7 nM.
The result for `Cc1c([C@@H](O)CN2CCC3(CC2)CCN(c2ccc4nnc(C(F)(F)F)n4n2)C3)ccc2c1COC2=O` [Example 15] reads 287 nM; that for `CSCc1nnc2ccc(N3CCC4(CCN(C[C@H](O)c5ccc6c(c5C)COC6=O)CC4)C3)nn12` [Example 11], 47.7 nM.
`Cc1c([C@@H](O)CN2CCC3(CC2)CCN(c2nc4cc(C#N)ccc4[nH]2)C3)ccc2c1COC2=O` [Example 2]: the IC50 came to 132 nM.
For `COc1cc(C(O)CN2CCC3(CC2)CCN(c2ccc4nncn4n2)C3)c(Cl)cc1C#N` (stereo not drawn) [Example 56], the IC50 was determined as 27.6 nM.
`Cc1c([C@@H](O)CN2CCC3(CC2)CCN(c2cnc4snnc4c2)C3=O)ccc2c1COC2=O` [Example 30] came in with an IC50 of 83.2 nM.
`Cc1c([C@@H](O)CN2CCC3(CC2)CCN(c2snc4cccnc24)C3=O)ccc2c1COC2=O` [Example 83]: the concentration for half-maximal inhibition (IC50) amounted to 33.9 nM.
For `Cc1nc(C(O)CN2CCC3(CC2)CC(=O)N(c2ccc4nncn4n2)C3)ccc1C#N` (stereo not drawn) [Example 57], the IC50 amounted to 248 nM.
Compound `COc1cc([C@H](O)CN2CCC3(CC2)CC(=O)N(c2ccc4nncn4n2)C3)ncc1C#N` [Example 60] registered an IC50 of 780 nM.
`Cc1c([C@@H](O)CN2CCC3(CC2)CCN(c2ccc4cnnn4c2)C3=O)ccc2c1COC2=O` [Example 86]: half-maximal inhibition (IC50) was put at 172 nM.
`COc1cc([C@@H](O)CN2CCC3(CC2)CC(=O)N(c2ccc4nncn4n2)C3)ncc1C#N` [Example 61]: it took 228 nM to reach half-maximal inhibition (IC50).
`Cc1c([C@@H](O)CN2CCC3(CC2)CCN(c2snc4ccncc24)C3=O)ccc2c1COC2=O` [Example 85] gave an IC50 of 18.5 nM.
In turn, `Cc1c([C@@H](O)CN2CCC3(CCN(c4ccc5nncn5n4)CC3)C2)ccc2c1COC2=O` [Example 70, (R)-5-(2-(8-([1,2,4]triazolo[4,3-b]pyridazin-6-yl)-2,8-diazaspiro[4.5]decan-2-yl)-1-hydroxyethyl)-4-methylisobenzofuran-1(3H)-one] had an IC50 of 31 nM.
The compound `Cc1c([C@@H](O)CN2CCC3(CC2)CC(=O)N(c2ccc4nc(C(F)(F)F)nn4c2)C3)ccc2c1COC2=O` [Example 40] yielded an IC50 of 894 nM.
As for `Cc1nc(C(O)CN2CCC3(CCN(c4ccc5nncn5n4)CC3)C2)ccc1C#N` (stereo not drawn) [Example 68], the IC50 is 85.9 nM.
The compound `Cc1c([C@@H](O)CN2CCC3(CC2)CCN(c2ccn4nccc4n2)C3)ccc2c1COC2=O` [Example 8] came in with an IC50 of 246 nM.
In the case of `Cc1c([C@@H](O)CN2CCC3(CC2)CC(=O)N(c2cn4ncnc4cn2)C3)ccc2c1COC2=O` [Example 39, (R)-2-([1,2,4]triazolo[1,5-a]pyrazin-6-yl)-8-(2-hydroxy-2-(4-methyl-1-oxo-1,3-dihydroisobenzofuran-5-yl)ethyl)-2,8-diazaspiro[4.5]decan-3-one], the IC50 is 458 nM.
`Cc1c([C@@H](O)CN2CCC3(CC2)CCN(c2nccn4cnnc24)C3)ccc2c1COC2=O` [Example 3] displayed an IC50 of 235 nM.
Take `Cc1nc(C(O)CN2CCC3(CCN(c4ccc5nncn5n4)CC3)C2)ccc1C#N` (stereo not drawn) [Example 67, 6-(2-(8-([1,2,4]triazolo[4,3-b]pyridazin-6-yl)-2,8-diazaspiro[4.5]decan-2-yl)-1-hydroxyethyl)-2-methylnicotinonitrile]: the midpoint of inhibition, the IC50, lay at 64.2 nM.
Take `Cc1cc(C#N)c(F)cc1C(O)CN1CCC2(CC1)CCN(c1ccc3nncn3n1)C2` (racemic) [Example 55]: it took 26 nM to reach half-maximal inhibition (IC50).
As for `Cc1c([C@@H](O)CN2CCC3(CC2)CC(=O)N(c2cnc4nonc4c2)C3)ccc2c1COC2=O` [Example 94], the midpoint of inhibition, the IC50, lay at 109 nM.
On to `Cc1c([C@@H](O)CN2CCC3(CC2)CCN(c2nn4cnnc4c4ccccc24)C3)ccc2c1COC2=O` [Example 9], for which the IC50 stood at 261 nM.
`Cc1c(F)c(C#N)cc(F)c1C(O)CN1CCC2(CC1)CCN(c1ccc3nncn3n1)C2` (racemic) [Example 54, 4-(2-(2-([1,2,4]triazolo[4,3-b]pyridazin-6-yl)-2,8-diazaspiro[4.5]decan-8-yl)-1-hydroxyethyl)-2,5-difluoro-3-methylbenzonitrile]: the IC50 came out at 35.9 nM.

For orientation: IC50 means the concentration that inhibits the measured activity by half.
